Data reported in patent US10899759B2, “Positive allosteric modulators of the muscarinic acetylcholine receptor M1” (Vanderbilt University, priority 2016, dated 2021).

Target: T1, human mAChR M1 (Homo sapiens, UniProt P11229)
T1 construct: host or cells: CHO-K1
T1 sequence (P11229 1-460): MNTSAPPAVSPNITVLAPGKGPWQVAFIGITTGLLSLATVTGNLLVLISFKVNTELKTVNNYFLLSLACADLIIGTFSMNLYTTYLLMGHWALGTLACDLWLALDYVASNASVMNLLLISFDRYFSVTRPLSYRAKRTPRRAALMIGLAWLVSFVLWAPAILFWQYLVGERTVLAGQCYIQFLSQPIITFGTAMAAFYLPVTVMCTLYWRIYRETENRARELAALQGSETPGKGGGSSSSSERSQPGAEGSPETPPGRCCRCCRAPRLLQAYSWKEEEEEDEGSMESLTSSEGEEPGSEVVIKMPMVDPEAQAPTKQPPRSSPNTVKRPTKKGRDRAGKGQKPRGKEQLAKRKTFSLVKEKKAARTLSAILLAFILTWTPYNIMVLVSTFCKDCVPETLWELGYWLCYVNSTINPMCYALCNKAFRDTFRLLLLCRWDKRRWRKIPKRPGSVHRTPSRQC
Experiment: mAChR M1 cell-based functional assay (calcium mobilization, Fluo-4, FDSS)
Conditions: CHO-K1 cells stably expressing hM1; for Emax: read-out: Human M1 Emax; for EC50: positive allosteric modulator activity as increase in the EC20 acetylcholine response
Procedure, shortened: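 CHO-K1 cells stably expressing muscarinic receptor, loaded with Fluo-4; 11-point 1:3 compound series added and calcium flux read over 300 s at 1 Hz. Agonism from direct calcium rise, PAM activity as potentiation of EC20 acetylcholine, antagonism as decrease of EC80 acetylcholine; four-parameter logistic fits.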

Row | Compound | Emax (EC20 acetylcholine response) [%] | EC50 [nM] | Human M1 Emax (EC20 acetylcholine response) [%]
1 | Cn1ccc2c(Cc3ccc(-c4cscn4)cc3)cc(C(=O)NC3COC3)nc21 [Compound 35, 1-methyl-N-(oxetan-3-yl)-4-[(4-thiazol-4-ylphenyl)methyl]pyrrolo[2,3-b]pyridine-6-carboxamide] | 40.2 | 1230 | 
2 | Cn1cc(-c2ccc(Cc3cc(C(=O)NC4CCOCC4)nc4sccc34)cn2)cn1 [Compound 114, 4-[[6-(1-methylpyrazol-4-yl)-3-pyridyl]methyl]-N-tetrahydropyran-4-yl-thieno[2,3-b]pyridine-6-carboxamide] | 38.6 | 10 | 
3 | Cc1nc(-c2ccc(Cc3cc(C(=O)N[C@H]4CCOC[C@@H]4O)nc4c3ccn4C)cc2)co1 [Compound 51, N-[(3R,4S)-3-hydroxytetrahydropyran-4-yl]-1-methyl-4-[[4-(2-methyloxazol-4-yl)phenyl]methyl]pyrrolo[2,3-b]pyridine-6-carboxamide] | 83.4 | 30 | 
4 | O=C(NC1COC1)c1cc(Cc2ccc(-n3cccn3)cc2)c2ccsc2n1 [Compound 81, N-(oxetan-3-yl)-4-[(4-pyrazol-1-ylphenyl)methyl]thieno[2,3-b]pyridine-6-carboxamide] | 69.4 | 190 | 
5 | Cn1ccc(-c2ccc(Cc3cc(C(=O)N[C@H]4CCCC[C@@H]4O)nc4c3ccn4C)cn2)n1 [Compound 155, N-[(1S,2S)-2-hydroxycyclohexyl]-1-methyl-4-[[6-(1-methylpyrazol-3-yl)-3-pyridyl]methyl]pyrrolo[2,3-b]pyridine-6-carboxamide] | 65.7 | 110 | 
6 | CC1CC(NC(=O)c2cc(Cc3ccc(-c4ccn(C)n4)nc3)c3ccsc3n2)CC(C)O1 (stereo not drawn) [Compound 104, N-(2,6-dimethyltetrahydropyran-4-yl)-4-[[6-(1-methylpyrazol-3-yl)-3-pyridyl]methyl]thieno[2,3-b]pyridine-6-carboxamide] | 59.7 | 90 | 
7 | Cc1nc(-c2ccc(Cc3cc(C(=O)NC4CCOCC4)nc4sccc34)cc2)co1 [Compound 4, 4-[[4-(2-methyloxazol-4-yl)phenyl]methyl]-N-tetrahydropyran-4-yl-thieno[2,3-b]pyridine-6-carboxamide] | 57.9 | 140 | 
8 | O=C(N[C@@H]1CCOC1)c1cc(Cc2ccc(-n3cccn3)cc2)c2ccsc2n1 [Compound 78, 4-[(4-pyrazol-1-ylphenyl)methyl]-N-[(3R)-tetrahydrofuran-3-yl]thieno[2,3-b]pyridine-6-carboxamide] | 68.5 | 1720 | 
9 | CCn1ccc2c(Cc3ccc(-n4cccn4)cc3)cc(C(=O)NC3CC4(COC4)C3)nc21 [Compound 12, 1-ethyl-N-(2-oxaspiro[3.3]heptan-6-yl)-4-[(4-pyrazol-1-ylphenyl)methyl]pyrrolo[2,3-b]pyridine-6-carboxamide] | 72.3 | 200 | 
10 | Cn1ncc2c(Cc3ccc(-n4cccn4)cc3)cc(C(=O)N[C@H]3CCCC[C@@H]3O)nc21 [Compound 8, N-[(1S,2S)-2-hydroxycyclohexyl]-1-methyl-4-[(4-pyrazol-1-ylphenyl)methyl]pyrazolo[3,4-b]pyridine-6-carboxamide] | 86.6 | 200 | 
11 | COCC(C)NC(=O)c1cc(Cc2ccc(-c3cnn(C)c3)nc2)c2ccsc2n1 (stereo not drawn) [Compound 128, N-(2-methoxy-1-methyl-ethyl)-4-[[6-(1-methylpyrazol-4-yl)-3-pyridyl]methyl]thieno[2,3-b]pyridine-6-carboxamide] | 60.8 | 160 | 
12 | CC1CC(NC(=O)c2cc(Cc3ccc(-c4cnn(C)c4)nc3)c3ccsc3n2)CC(C)O1 (stereo not drawn) [Compound 116, N-(2,6-dimethyltetrahydropyran-4-yl)-4-[[6-(1-methylpyrazol-4-yl)-3-pyridyl]methyl]thieno[2,3-b]pyridine-6-carboxamide] | 54.8 | 50 | 
13 | Cn1ccc(-c2ccc(Cc3cc(C(=O)NC4COC4)nc4c3ccn4C)cc2)n1 [Compound 44, 1-methy1-4-[[4-(1-methylpyrazol-3-yl)phenyl]methyl]-N-(oxetan-3-yl)pyrrolo[2,3-b]pyridine-6-carboxamide] | 56.1 | 6280 | 
14 | Cn1cc(-c2ccc(Cc3cc(C(=O)NC4CC(F)(F)C4)nc4sccc34)cn2)cn1 [Compound 126, N-(3,3-difluorocyclobutyl)-4-[[6-(1-methylpyrazol-4-yl)-3-pyridyl]methyl]thieno[2,3-b]pyridine-6-carboxamide] | 63.4 | 270 | 
15 | COCCNC(=O)c1cc(Cc2ccc(-c3coc(C)n3)cc2)c2ccsc2n1 [Compound 143, N-(2-methoxyethyl)-4-[[4-(2-methyloxazol-4-yl)phenyl]methyl]thieno[2,3-b]pyridine-6-carboxamide] | 60.8 | 280 | 
16 | Cn1ccc2c(Cc3ccc(-c4cscn4)cc3)cc(C(=O)N[C@@H]3CCCOC3)nc21 [Compound 32, 1-methyl-N-[(3R)-tetrahydropyran-3-yl]-4-[(4-thiazol-4-ylphenyl)methyl]pyrrolo[2,3-b]pyridine-6-carboxamide] | 39.7 | 380 | 
17 | Cn1ccc2c(Cc3ccc(-c4cscn4)cc3)cc(C(=O)NC3CCOCC3)nc21 [Compound 2, 1-methyl-N-tetrahydropyran-4-yl-4-[(4-thiazol-4-ylphenyl)methyl]pyrrolo[2,3-b]pyridine-6-carboxamide] | 71.2 | 230 | 
18 | O=C(NC1CC(F)C1)c1cc(Cc2ccc(-n3cccn3)cc2)c2ccsc2n1 (stereo not drawn) [Compound 82] | 69.6 | 2090 | 
19 | Cc1nc(-c2ccc(Cc3cc(C(=O)NCC4CCOC4)nc4sccc34)cc2)co1 (stereo not drawn) [Compound 138, 4-[[4-(2-methyloxazol-4-yl)phenyl]methyl]-N-(tetrahydrofuran-3-ylmethyl)thieno[2,3-b]pyridine-6-carboxamide] | 59.5 | 3150 | 
20 | O=C(NC1CC2(COC2)C1)c1cc(Cc2ccc(-n3cccn3)cc2)c2ccsc2n1 [Compound 80, N-(2-oxaspiro[3.3]heptan-6-yl)-4-[(4-pyrazol-1-ylphenyl)methyl]thieno[2,3-b]pyridine-6-carboxamide] | 72.3 | 430 | 
21 | Cc1nc(-c2ccc(Cc3cc(C(=O)NC4CCOCC4C)nc4sccc34)cc2)co1 (stereo not drawn) [Compound 134, 4-[[4-(2-methyloxazol-4-yl)phenyl]methyl]-N-(3-methyltetrahydropyran-4-yl)thieno[2,3-b]pyridine-6-carboxamide] | 51.4 | 1220 | 
22 | Cc1nc(-c2ccc(Cc3cc(C(=O)NCC4CCOCC4)nc4sccc34)cc2)co1 [Compound 135] | 57.7 | 540 | 
23 | 1-methyl-N-tetrahydropyran-4-yl-4-[(4-thiazol-2-ylphenyl)methyl]pyrrolo[2,3-b]pyridine-6-carboxamide [Compound 61] |  | 840 | 56.7
24 | CCn1ccc2c(Cc3ccc(-n4cccn4)cc3)cc(C(=O)NC3CCOCC3)nc21 [Compound 11, 1-ethyl-4-[(4-pyrazol-1-ylphenyl)methyl]-N-tetrahydropyran-4-yl-pyrrolo[2,3-b]pyridine-6-carboxamide] | 74 | 280 | 
25 | Cn1ccc(-c2ccc(Cc3cc(C(=O)NC4CCOCC4)nc4sccc34)cn2)n1 [Compound 102, 4-[[6-(1-methylpyrazol-3-yl)-3-pyridyl]methyl]-N-tetrahydropyran-4-yl-thieno[2,3-b]pyridine-6-carboxamide] | 37.9 | 20 | 
26 | CCn1ccc2c(Cc3ccc(-n4cccn4)cc3)cc(C(=O)N[C@H]3CCCCC[C@@H]3O)nc21 [Compound 15, 1-ethyl-N-[(1S,2S)-2-hydroxycycloheptyl]-4-[(4-pyrazol-1-ylphenyl)methyl]pyrrolo[2,3-b]pyridine-6-carboxamide] | 61.8 | 140 | 
27 | Cn1ccc(-c2ccc(Cc3cc(C(=O)N[C@H]4CC[C@@H]4O)nc4c3ccn4C)cn2)n1 [Compound 156, N-[(1S,2S)-2-hydroxycyclobutyl]-1-methyl-4-[[6-(1-methylpyrazol-3-yl)-3-pyridyl]methyl]pyrrolo[2,3-b]pyridine-6-carboxamide] | 74.2 | 920 | 
28 | Cn1ccc2c(Cc3ccc(-c4nccs4)cc3)cc(C(=O)NC3CCOC(C)(C)C3)nc21 (stereo not drawn) [Compound 66, N-(2,2-dimethyltetrahydropyran-4-yl)-1-methyl-4-[(4-thiazol-2-ylphenyl)methyl]pyrrolo[2,3-b]pyridine-6-carboxamide] | 59.6 | 1650 | 
29 | COCCNC(=O)c1cc(Cc2ccc(-c3ccn(C)n3)nc2)c2ccsc2n1 [Compound 111, N-(2-methoxyethyl)-4-[[6-(1-methylpyrazol-3-yl)-3-pyridyl]methyl]thieno[2,3-b]pyridine-6-carboxamide] | 63.2 | 370 | 
30 | Cn1cc(-c2ccc(Cc3cc(C(=O)N[C@H]4CCOC[C@@H]4O)nc4c3ccn4C)cn2)cn1 [Compound 45, N-[(3R,4S)-3-hydroxytetrahydropyran-4-yl]-1-methyl-4-[[6-(1-methylpyrazol-4-yl)-3-pyridyl]methyl]pyrrolo[2,3-b]pyridine-6-carboxamide] | 74.3 | 10 | 
